Active and inactive are the calls of the source. The rule behind the calls is not given here.
Assays:
Assay type in all cases: functional, cell-based
HCT-116 [1] = experiment: Activation of innate immune response in human HCT-116 cells assessed as upregulation of IRF5 gene expression at 10 to 500 nM incubated for 6 to 48 hrs by RNA analysis; details: dose 10-500 nM, time 6-48 hrs
HCT-116 [2] = experiment: Induction of apoptosis in human HCT-116 cells assessed as downregulation of NDC1 gene expression at 10 to 500 nM incubated for 6 to 48 hrs by RNA analysis; details: dose 10-500 nM, time 6-48 hrs
HCT-116 [3] = experiment: Activation of innate immune response in human HCT-116 cells assessed as upregulation of IRF7 gene expression at 10 to 500 nM incubated for 6 to 48 hrs by RNA analysis; details: dose 10-500 nM, time 6-48 hrs
HCT-116 [4] = experiment: Activation of innate immune response in human HCT-116 cells assessed as upregulation of IFIH1 gene expression at 10 to 500 nM incubated for 6 to 48 hrs by RNA analysis; details: dose 10-500 nM, time 6-48 hrs
HCT-116 [5] = experiment: Induction of apoptosis in human HCT-116 cells assessed as downregulation of TXNRD1 gene expression at 10 to 500 nM incubated for 6 to 48 hrs by RNA analysis; details: dose 10-500 nM, time 6-48 hrs
HCT-116 [6] = experiment: Induction of apoptosis in human HCT-116 cells assessed as downregulation of ATIC gene expression at 10 to 500 nM incubated for 6 to 48 hrs by RNA analysis; details: dose 10-500 nM, time 6-48 hrs
HCT-116 [7] = experiment: Induction of apoptosis in human HCT-116 cells assessed as downregulation of PCK2 gene expression at 10 to 500 nM incubated for 6 to 48 hrs by RNA analysis; details: dose 10-500 nM, time 6-48 hrs
HCT-116 [8] = experiment: Induction of apoptosis in human HCT-116 cells assessed as downregulation of Survivin protein expression incubated for 48 hrs by Western blotting analysis
HCT-116 [9] = experiment: Induction of apoptosis in human HCT-116 cells assessed as downregulation of SEH1L gene expression at 10 to 500 nM incubated for 6 to 48 hrs by RNA analysis; details: dose 10-500 nM, time 6-48 hrs
HCT-116 [10] = experiment: Induction of apoptosis in human HCT-116 cells assessed as downregulation of END1 gene expression at 10 to 500 nM incubated for 6 to 48 hrs by RNA analysis; details: dose 10-500 nM, time 6-48 hrs
HCT-116 [11] = experiment: Induction of apoptosis in human HCT-116 cells assessed as increase in intracellular ROS level at 10 to 1000 nM incubated for 12 hrs by DCFH-DA staining based fluorescence microscopy; details: dose 10-1000 nM
HCT-116 [12] = experiment: Induction of apoptosis in human HCT-116 cells assessed as downregulation of PUDP gene expression at 10 to 500 nM incubated for 6 to 48 hrs by RNA analysis; details: dose 10-500 nM, time 6-48 hrs
HCT-116 [13] = experiment: Induction of apoptosis in human HCT-116 cells assessed as downregulation of NUP107 gene expression at 10 to 500 nM incubated for 6 to 48 hrs by RNA analysis; details: dose 10-500 nM, time 6-48 hrs
HCT-116 [14] = experiment: Activation of innate immune response in human HCT-116 cells assessed as upregulation of IL-12RB2 gene expression at 10 to 500 nM incubated for 6 to 48 hrs by RNA analysis; details: dose 10-500 nM, time 6-48 hrs
HCT-116 [15] = experiment: Induction of apoptosis in human HCT-116 cells assessed as downregulation of NUP210 gene expression at 10 to 500 nM incubated for 6 to 48 hrs by RNA analysis; details: dose 10-500 nM, time 6-48 hrs
HCT-116 [16] = experiment: Induction of apoptosis in human HCT-116 cells assessed as modulation of DDX17 mRNA expression at 10 to 500 nM incubated for 6 to 48 hrs by RNA analysis; details: dose 10-500 nM, time 6-48 hrs
HCT-116 [17] = experiment: Induction of apoptosis in human HCT-116 cells assessed as upregulation of DDX5 mRNA expression at 500 nM incubated for 6 hrs by RNA analysis
HCT-116 [18] = experiment: Induction of apoptosis in human HCT-116 cells assessed as downregulation of PRKAR2B gene expression at 10 to 500 nM incubated for 6 to 48 hrs by RNA analysis; details: dose 10-500 nM, time 6-48 hrs
HCT-116 [19] = experiment: Induction of apoptosis in human HCT-116 cells assessed as downregulation of AK8 gene expression at 10 to 500 nM incubated for 6 to 48 hrs by RNA analysis; details: dose 10-500 nM, time 6-48 hrs
HCT-116 [20] = experiment: Induction of apoptosis in human HCT-116 cells assessed as downregulation of NT5C3A gene expression at 10 to 500 nM incubated for 6 to 48 hrs by RNA analysis; details: dose 10-500 nM, time 6-48 hrs
HCT-116 [21] = experiment: Induction of apoptosis in human HCT-116 cells assessed as downregulation of NT5C2 gene expression at 10 to 500 nM incubated for 6 to 48 hrs by RNA analysis; details: dose 10-500 nM, time 6-48 hrs
HCT-116 [22] = experiment: Induction of apoptosis in human HCT-116 cells assessed as downregulation of NUDT1 gene expression at 10 to 500 nM incubated for 6 to 48 hrs by RNA analysis; details: dose 10-500 nM, time 6-48 hrs
HCT-116 [23] = experiment: Induction of apoptosis in human HCT-116 cells assessed as downregulation of TPI1 gene expression at 10 to 500 nM incubated for 6 to 48 hrs by RNA analysis; details: dose 10-500 nM, time 6-48 hrs
HCT-116 [24] = experiment: Induction of apoptosis in human HCT-116 cells assessed as downregulation of NUP93 gene expression at 10 to 500 nM incubated for 6 to 48 hrs by RNA analysis; details: dose 10-500 nM, time 6-48 hrs
HCT-116 [25] = experiment: Induction of apoptosis in human HCT-116 cells assessed as downregulation of RANBP2 gene expression at 10 to 500 nM incubated for 6 to 48 hrs by RNA analysis; details: dose 10-500 nM, time 6-48 hrs
HCT-116 [26] = experiment: Induction of apoptosis in human HCT-116 cells assessed as downregulation of ACACA gene expression at 10 to 500 nM incubated for 6 to 48 hrs by RNA analysis; details: dose 10-500 nM, time 6-48 hrs
HCT-116 [27] = experiment: Induction of apoptosis in human HCT-116 cells assessed as downregulation of TYMS gene expression at 10 to 500 nM incubated for 6 to 48 hrs by RNA analysis; details: dose 10-500 nM, time 6-48 hrs
HCT-116 [28] = experiment: Induction of apoptosis in human HCT-116 cells assessed as downregulation of NT5C gene expression at 10 to 500 nM incubated for 6 to 48 hrs by RNA analysis; details: dose 10-500 nM, time 6-48 hrs
HepG2 = experiment: Growth inhibition of human HepG2 cells incubated for 48 hrs by MTT reagent based ELISA reader analysis; details: HepG2, 48 h
HCT-116 [29] = experiment: Induction of apoptosis in human HCT-116 cells assessed as modulation of DDX54 mRNA expression at 10 to 500 nM incubated for 6 to 48 hrs by RNA analysis; details: dose 10-500 nM, time 6-48 hrs
HCT-116 [30] = experiment: Induction of apoptosis in human HCT-116 cells assessed as increase in intracellular ROS level at 10 to 1000 nM incubated for 4 to 8 hrs by DCFH-DA staining based fluorescence microscopy; details: dose 10-1000 nM, time 4-8 hrs
HCT-116 [31] = experiment: Induction of apoptosis in human HCT-116 cells assessed as modulation of DDX42 mRNA expression at 10 to 500 nM incubated for 6 to 48 hrs by RNA analysis; details: dose 10-500 nM, time 6-48 hrs
HCT-116 [32] = experiment: Induction of apoptosis in human HCT-116 cells assessed as downregulation of DPYD gene expression at 10 to 500 nM incubated for 6 to 48 hrs by RNA analysis; details: dose 10-500 nM, time 6-48 hrs

| Structure (SMILES) | Activity (HCT-116 [1]) | Activity (HCT-116 [2]) | Activity (HCT-116 [3]) | Activity (HCT-116 [4]) | Activity (HCT-116 [5]) | Activity (HCT-116 [6]) | Activity (HCT-116 [7]) | Activity (HCT-116 [9]) | Activity (HCT-116 [10]) | Activity (HCT-116 [11]) | Activity (HCT-116 [12]) | Activity (HCT-116 [13]) | Activity (HCT-116 [14]) | Activity (HCT-116 [15]) | Activity (HCT-116 [16]) | Activity (HCT-116 [17]) | Activity (HCT-116 [18]) | Activity (HCT-116 [19]) | Activity (HCT-116 [20]) | Activity (HCT-116 [21]) | other results |
| --- | --- | --- | --- | --- | --- | --- | --- | --- | --- | --- | --- | --- | --- | --- | --- | --- | --- | --- | --- | --- | --- |
| CC[C@@]1(O)C(=O)OCc2c1cc1n(c2=O)Cc2c-1nc1cc3c(cc1c2-c1cc(OC)cc(OC)c1)OCO3 | Active | Active | Active | Active | Active | Active | Active | Active | Active | Active | Active | Active | Active | Active | Active | Active | Active | Active | Active | Active | Activity (HCT-116 [8]): Active; Activity (HCT-116 [22]): Active; Activity (HCT-116 [23]): Active; Activity (HCT-116 [24]): Active; Activity (HCT-116 [25]): Active; Activity (HCT-116 [26]): Active; Activity (HCT-116 [27]): Active; Activity (HCT-116 [28]): Active; IC50 (HepG2): 118 nM; Activity (HCT-116 [29]): Active; Activity (HCT-116 [30]): Active; Activity (HCT-116 [31]): Active |
| CC[C@@]1(O)C(=O)OCc2c1cc1n(c2=O)Cc2c-1nc1cc3c(cc1c2-c1ccc(OC)cc1)OCO3 | Active | Active | Active | Active | Active | Active | Active | Active | Active | Active | Active | Active | Active | Active | Active | Active | Active | Active | Active | Active | Activity (HCT-116 [8]): Active; Activity (HCT-116 [32]): Active; Activity (HCT-116 [22]): Active; Activity (HCT-116 [23]): Active; Activity (HCT-116 [24]): Active; Activity (HCT-116 [25]): Active; Activity (HCT-116 [26]): Active; Activity (HCT-116 [27]): Active; Activity (HCT-116 [28]): Active; IC50 (HepG2): 64 nM; Activity (HCT-116 [29]): Active; Activity (HCT-116 [30]): Active; Activity (HCT-116 [31]): Active |
| CCc1ccc(-c2c3c(nc4cc5c(cc24)OCO5)-c2cc4c(c(=O)n2C3)COC(=O)[C@]4(O)CC)cc1 | Active | Active | Active | Active | Active | Active | Active | Active | Active | Active | Active | Active | Active | Active | Active | Active | Active | Active | Active | Active | Activity (HCT-116 [8]): Active; Activity (HCT-116 [32]): Active; Activity (HCT-116 [22]): Active; Activity (HCT-116 [23]): Active; Activity (HCT-116 [24]): Active; Activity (HCT-116 [25]): Active; Activity (HCT-116 [26]): Active; Activity (HCT-116 [27]): Active; Activity (HCT-116 [28]): Active; IC50 (HepG2): 160 nM; Activity (HCT-116 [29]): Active; Activity (HCT-116 [30]): Active; Activity (HCT-116 [31]): Active |
| CC[C@@]1(O)C(=O)OCc2c1cc1n(c2=O)Cc2cc3cc4c(cc3nc2-1)OCO4 | Active | Active | Active | Active | Active | Active | Active | Active | Active | Active | Active | Active | Active | Active | Active | Active | Active | Active | Active | Active | Activity (HCT-116 [32]): Active; Activity (HCT-116 [22]): Active; Activity (HCT-116 [23]): Active; Activity (HCT-116 [24]): Active; Activity (HCT-116 [25]): Active; Activity (HCT-116 [26]): Active; Activity (HCT-116 [27]): Active; Activity (HCT-116 [28]): Active; IC50 (HepG2): 39.5 nM; Activity (HCT-116 [29]): Active; Activity (HCT-116 [30]): Active; Activity (HCT-116 [31]): Active |
